Several values for one entry are separate records, joined by “and”; a condition that tells them apart may be missing. Equal entries are not always repeated.
Target: T1, rat brain AChE (Rattus norvegicus, UniProt P37136)
T1 construct: the resulting clear supernatants obtained were used as enzyme sources; from tissue; host or cells: rat brain cortex homogenate, 10,000 g supernatant
Assay: biochemical
Type: biochemical
Settings: diaryl analogues
Procedure: Rat brain was used as a source of AChE enzyme. Rats were separately decapitated, the brain cortices quickly removed, weighed and homogenised in cold 10 mM Tris-HCl buffer, pH 7.2, containing 160 mM sucrose. The homogenates were centrifuged at 10,000 g for 10 min at 4 °C, and the resulting clear supernatants obtained were used as enzyme sources that were divided into aliquots and stored at −20 °C.
About 30 µl of enzyme sample (AChE) was added to 60 µl of 20 mM sodium phosphate buffer (pH 7.4) and were incubated in the presence of 30 µl of 10 mM DTNB solution with different concentrations of the test compounds. The enzyme reaction was initiated by the addition of 30 µl of 0.8 mM ACTI. The mixtures were incubated for 15 min at 25 °C. […] Control experiments were carried out without inhibitor, and blanks were run without AChE enzyme. All the assays were performed in triplicate. IC50 values were determined using the GraphPad Prism 5.0 (San Diego, CA) and the results were expressed as mean ± SEM.
(§1) 0, 15, 30 and 60 min at 25 °C in sodium phosphate buffer (20 mM, pH 7.4) and DTNB solution (10 mM). […] The reaction was further incubated at 25 °C for a further 15 min and the residual enzyme activities were measured and the bar graphs were constructed. All measurements were carried out in triplicate and are expressed as mean ± SEM.

T1 sequence (P37136 32-614): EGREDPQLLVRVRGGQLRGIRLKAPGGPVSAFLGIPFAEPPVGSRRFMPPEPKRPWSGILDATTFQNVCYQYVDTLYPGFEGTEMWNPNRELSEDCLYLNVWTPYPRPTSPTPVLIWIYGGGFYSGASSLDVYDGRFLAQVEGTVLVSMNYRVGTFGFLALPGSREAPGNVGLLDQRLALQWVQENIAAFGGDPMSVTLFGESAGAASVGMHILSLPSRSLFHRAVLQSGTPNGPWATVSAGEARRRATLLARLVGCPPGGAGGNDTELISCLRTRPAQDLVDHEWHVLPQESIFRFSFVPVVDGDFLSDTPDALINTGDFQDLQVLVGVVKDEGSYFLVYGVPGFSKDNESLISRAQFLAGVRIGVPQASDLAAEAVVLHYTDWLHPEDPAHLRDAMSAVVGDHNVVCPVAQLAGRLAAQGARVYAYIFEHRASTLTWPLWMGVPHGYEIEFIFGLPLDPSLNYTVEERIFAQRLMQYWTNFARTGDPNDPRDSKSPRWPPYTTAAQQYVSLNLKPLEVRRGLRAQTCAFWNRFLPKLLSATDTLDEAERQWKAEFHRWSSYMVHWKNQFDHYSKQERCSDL

Row | Compound | AChE: fold less active relative to compound 19
1 | O=C(NN=C(c1ccccc1)c1ccc(O)cc1)Nc1ncc([N+](=O)[O-])s1 [Compound 18, 1-((4-Hydroxyphenyl)(phenyl)methylene)-4-(5-nitrothiazol-2-yl)semicarbazide] | ~1.83 fold

Same assay, conditions: rat brain AChE, ACTI substrate, mean ± SEM, triplicate; read-out: AChE In vitro IC50 (µM) ± SEM

Row | Compound | IC50
2 | O=C(NN=C(c1ccccc1)c1ccc(O)cc1)Nc1ncc([N+](=O)[O-])s1 [Compound 18, 1-((4-Hydroxyphenyl)(phenyl)methylene)-4-(5-nitrothiazol-2-yl)semicarbazide] | 2.66 ± 0.084 µM

Same assay, conditions: ratio of IC50 values

Row | Compound | AChE: fold more active relative to compound 7
3 | O=C(NN=C(c1ccccc1)c1ccc(O)cc1)Nc1ncc([N+](=O)[O-])s1 [Compound 18, 1-((4-Hydroxyphenyl)(phenyl)methylene)-4-(5-nitrothiazol-2-yl)semicarbazide] | ~4.97 fold

System: not listed separately
Assay: physchem
Settings: octanol/water

Row | Compound | logP
4 | O=C(NN=C(c1ccccc1)c1ccc(O)cc1)Nc1ncc([N+](=O)[O-])s1 [Compound 18, 1-((4-Hydroxyphenyl)(phenyl)methylene)-4-(5-nitrothiazol-2-yl)semicarbazide] | 2.9

System: mice
Assay: Neurotoxicity screening (rotarod test)
Type: in vivo
Settings: 30 mg/kg i.p., 0.5 h
Procedure: The neurotoxicity screening was undertaken according to the method followed by the National Institute of Health, using their reported procedures[55]^,[56]. Male albino mice (CF-1 strain or Swiss, 18–25 g) were used as experimental animals. The animals were housed in metabolic cages, and allowed free access to food and water. The test compounds were suspended in 0.5% methylcellulose/water mixture or in polyethylene glycol (PEG 200).
Minimal motor impairment was measured in mice by the rotarod test. The mice were trained to stay on an accelerating rotarod that rotates at six revolutions per minute. The rod diameter was 3.2 cm. Trained animals were given i.p. injection of the selected inhibitors at a dose of 30 mg/kg. Neurotoxicity was indicated by the inability of the animal to maintain equilibrium on the rod for at least 1 min in each of the three trials.

Row | Compound | Neurotoxicity (animals that exhibit toxicity / animals tested)
5 | O=C(NN=C(c1ccccc1)c1ccc(O)cc1)Nc1ncc([N+](=O)[O-])s1 [Compound 18, 1-((4-Hydroxyphenyl)(phenyl)methylene)-4-(5-nitrothiazol-2-yl)semicarbazide] | 0/4

Same assay, conditions: 30 mg/kg i.p., 1 h

Row | Compound | Neurotoxicity (animals that exhibit toxicity / animals tested)
6 | O=C(NN=C(c1ccccc1)c1ccc(O)cc1)Nc1ncc([N+](=O)[O-])s1 [Compound 18, 1-((4-Hydroxyphenyl)(phenyl)methylene)-4-(5-nitrothiazol-2-yl)semicarbazide] | 0/4

Same assay, conditions: 30 mg/kg i.p., 2 h

Row | Compound | Neurotoxicity (animals that exhibit toxicity / animals tested)
7 | O=C(NN=C(c1ccccc1)c1ccc(O)cc1)Nc1ncc([N+](=O)[O-])s1 [Compound 18, 1-((4-Hydroxyphenyl)(phenyl)methylene)-4-(5-nitrothiazol-2-yl)semicarbazide] | 0/4

Same assay, conditions: 30 mg/kg i.p., 4 h

Row | Compound | Neurotoxicity (animals that exhibit toxicity / animals tested)
8 | O=C(NN=C(c1ccccc1)c1ccc(O)cc1)Nc1ncc([N+](=O)[O-])s1 [Compound 18, 1-((4-Hydroxyphenyl)(phenyl)methylene)-4-(5-nitrothiazol-2-yl)semicarbazide] | 0/4

Target: T2, MAO-A (Rattus norvegicus, UniProt P21396)
T2 construct: employing crude rat brain mitochondrial suspension; from tissue; host or cells: brain mitochondria of adult Wistar rats
T2 sequence (P21396 1-526): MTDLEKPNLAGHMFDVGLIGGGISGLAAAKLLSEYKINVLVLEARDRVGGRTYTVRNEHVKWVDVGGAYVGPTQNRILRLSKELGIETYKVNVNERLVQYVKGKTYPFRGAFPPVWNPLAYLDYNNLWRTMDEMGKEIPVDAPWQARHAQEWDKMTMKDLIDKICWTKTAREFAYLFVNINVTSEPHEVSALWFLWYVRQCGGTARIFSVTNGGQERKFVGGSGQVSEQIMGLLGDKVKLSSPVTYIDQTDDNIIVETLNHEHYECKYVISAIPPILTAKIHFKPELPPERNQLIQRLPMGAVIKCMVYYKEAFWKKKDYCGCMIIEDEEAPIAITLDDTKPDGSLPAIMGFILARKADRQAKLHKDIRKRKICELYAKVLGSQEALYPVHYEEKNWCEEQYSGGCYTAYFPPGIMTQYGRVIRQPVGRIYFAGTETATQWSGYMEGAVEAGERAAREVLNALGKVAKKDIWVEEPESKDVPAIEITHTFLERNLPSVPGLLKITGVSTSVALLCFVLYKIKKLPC
Assay: In vitro MAO-A inhibition assay (rat brain mitochondria, serotonin substrate)
Type: biochemical
Settings: rat brain mitochondria, serotonin substrate, mean ± SEM, triplicate; read-out: MAO-A In vitro IC50 (µM) ± SEM
Procedure: (§2) Rat brain mitochondria were used as a source of MAO isoforms. All operations were carried out at 4 °C[50]. Male and female adult Wistar rats weighing 200–220 g were decapitated. All brains were rapidly removed and homogenised with a Potter–Elvehjem homogeniser in cold 0.32 M sucrose and 50 mM Tris-HCl, pH 8.2 (10:1, v/w). The homogenate was centrifuged twice at 1000 g for 5 min at 4 °C. The resulting supernatant was centrifuged at 20,000 g for 20 min. The mitochondrial pellet obtained was suspended in 100 mM sodium phosphate buffer, pH 7.4 (4:1, v/w), fractionated in plastic vials to 500 µl samples and stored at −80 °C. Before use, mitochondria were diluted with 100 mM sodium phosphate buffer to give a working solution of 0.80 mg of protein per millilitre.
(§3) The experiments were carried out under all the suitable laboratory conditions. […] An aliquot was made to contain mixture of 55 µl mitochondrial suspension (0.80 mg of protein/ml), 90 µl 50 mM Tris-HCl buffer, pH 8.2 and 30 µl solubilising solution (control or inhibitor solution at five different concentrations). The reaction was initiated by adding 25 µl of serotonin (4 mM, substrate for MAO-A) and 25 µl benzylamine (0.1 M, substrate for MAO-B) for the determination of MAO-A and MAO-B activity, respectively. The mixture was incubated at 37 °C for 30 min and the reaction was stopped by the addition of 50 µl of 1 N HCl. The absorbance associated with the production of 5-hydroxyindolacetic acid was measured at 280 nm for the estimation of MAO-A while for MAO-B estimation, the absorbance was measured at 250 nm due to the formation of benzaldehyde. All the assays were performed in triplicate. Control experiments were carried out without inhibitor and blanks were run without mitochondrial suspension.
(§4) Data are expressed as mean ± standard error mean (SEM) of experiments performed in triplicate.
as §1, with “37” for “25”, “Tris-HCl” for “sodium phosphate”, “(50” for “(20”, “8.2).” for “7.4) and DTNB solution (10 mM).”, “reactions were” for “reaction was”

Row | Compound | IC50
9 | O=C(NN=C(c1ccccc1)c1ccc(O)cc1)Nc1ncc([N+](=O)[O-])s1 [Compound 18, 1-((4-Hydroxyphenyl)(phenyl)methylene)-4-(5-nitrothiazol-2-yl)semicarbazide] | > 100 µM and 34300 µM

System: not listed separately
Assay: In vitro DPPH radical scavenging assay
Settings: test sample 100 µg/ml, 100 µM methanolic DPPH, 30 min, 517 nm
Procedure: Antioxidant activity of the synthesised compounds (10 mg/ml) was evaluated using the radical scavenging capability against the stable free radical, 2,2′-diphenyl-1-picryl hydrazyl (DPPH·). The DPPH· scavenging capability was determined using UV based spectrophotometric assay. About 200 µl of the test sample solution (100 µg/ml) was added to 4 ml of 100 µM methanolic DPPH. […] Ascorbic acid (100 µg/ml) was used as reference. The percentage inhibition of DPPH activity was estimated using the formula: Percent (%) inhibition of DPPH activity = Acontrol-Asample/Acontrol×100 where Acontrol is the absorbance of DPPH· in methanol without an antioxidant and Asample is the absorbance of DPPH· in the presence of an antioxidant.

Row | Compound | % inhibition of DPPH activity
10 | O=C(NN=C(c1ccccc1)c1ccc(O)cc1)Nc1ncc([N+](=O)[O-])s1 [Compound 18, 1-((4-Hydroxyphenyl)(phenyl)methylene)-4-(5-nitrothiazol-2-yl)semicarbazide] | 10.77%

Target: T3, MAO-B (Rattus norvegicus, UniProt P19643)
T3 construct: employing crude rat brain mitochondrial suspension; from tissue; host or cells: brain mitochondria of adult Wistar rats
T3 sequence (P19643 1-520): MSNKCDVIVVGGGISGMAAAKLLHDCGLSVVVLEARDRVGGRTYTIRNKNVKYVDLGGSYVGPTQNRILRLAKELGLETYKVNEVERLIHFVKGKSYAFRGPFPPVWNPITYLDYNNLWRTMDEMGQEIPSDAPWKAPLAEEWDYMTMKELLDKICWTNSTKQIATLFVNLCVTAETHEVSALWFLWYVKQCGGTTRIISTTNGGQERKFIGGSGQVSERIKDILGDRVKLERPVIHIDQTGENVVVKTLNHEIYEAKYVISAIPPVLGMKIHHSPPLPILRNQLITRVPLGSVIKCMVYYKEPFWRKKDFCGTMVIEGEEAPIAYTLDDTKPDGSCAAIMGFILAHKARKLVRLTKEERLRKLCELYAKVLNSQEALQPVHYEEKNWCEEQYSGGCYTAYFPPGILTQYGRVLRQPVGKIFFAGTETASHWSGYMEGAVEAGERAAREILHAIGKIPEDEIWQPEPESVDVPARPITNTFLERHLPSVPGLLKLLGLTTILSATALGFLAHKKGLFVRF
Assay: biochemical
Settings: not given
Procedure: as §2, §3, §4
as §1, with “37” for “25”, “Tris-HCl” for “sodium phosphate”, “(50” for “(20”, “8.2).” for “7.4) and DTNB solution (10 mM).”, “reactions were” for “reaction was”

Row | Compound | IC50
11 | O=C(NN=C(c1ccccc1)c1ccc(O)cc1)Nc1ncc([N+](=O)[O-])s1 [Compound 18, 1-((4-Hydroxyphenyl)(phenyl)methylene)-4-(5-nitrothiazol-2-yl)semicarbazide] | 158 ± 3.71 µM

Same assay, conditions: diaryl analogues

Row | Compound | MAO-B: fold reduction in the activity (hydroxyl vs dichloro diaryl analogue 19)
12 | O=C(NN=C(c1ccccc1)c1ccc(O)cc1)Nc1ncc([N+](=O)[O-])s1 [Compound 18, 1-((4-Hydroxyphenyl)(phenyl)methylene)-4-(5-nitrothiazol-2-yl)semicarbazide] | ~107 fold

Same assay, conditions: ratio of IC50 values

Row | Compound | MAO-B: fold less active relative to compound 7
13 | O=C(NN=C(c1ccccc1)c1ccc(O)cc1)Nc1ncc([N+](=O)[O-])s1 [Compound 18, 1-((4-Hydroxyphenyl)(phenyl)methylene)-4-(5-nitrothiazol-2-yl)semicarbazide] | ~10.7 fold

Same assay, conditions: ratio of experimental IC50(MAO-A)/IC50(MAO-B)

Row | Compound | SI (selectivity index for MAO-B)
14 | O=C(NN=C(c1ccccc1)c1ccc(O)cc1)Nc1ncc([N+](=O)[O-])s1 [Compound 18, 1-((4-Hydroxyphenyl)(phenyl)methylene)-4-(5-nitrothiazol-2-yl)semicarbazide] | 217.26

From PMC6009888, “Design, synthesis, and pharmacological evaluation of 2-amino-5-nitrothiazole derived semicarbazones as dual inhibitors of monoamine oxidase and cholinesterase: effect of the size of aryl binding site” (Journal of Enzyme Inhibition and Medicinal Chemistry, 2017)
